Test results taken from patent publication US12349710B2, “Sensory modifiers” (CARGILL, INCORPORATED, priority 2019, dated 2025).

What was measured:
[1] = Roundtable sensory panel of at least four experienced individuals, aqueous test samples (Example 1); assay type: in vivo; design: key to Spiky-Rounded: 0—like Reb M/N (spiky); 1—mostly spiky, some rounded; 2—mostly rounded, some spiky; 3—rounded; key to Sweet Linger / Tea/floral/green / Bitter / Typical Reb M/N Attributes (astringency, metallic, powdery, numbing, vapory): 0—none,; 1—trace/faint; 2—slight; 3—moderate; 4—definite; 5—strong; 6—extreme, typical Reb M/N; key to Mouthfeel: 0—water; 1—sucrosey; 2—syrupy; details: solution in reverse osmosis water
Procedure: Solutions were prepared which contained either a steviol glycoside component alone, for use as a control sample, or a steviol glycoside component and sensory modifier in a 2:1 molar ratio, which also corresponds to a 2:1 weight ratio. Solutions were prepared by dissolving the steviol glycoside components and sensory modifiers into reverse osmosis water at the indicated concentrations and/or ratios.
Assays were carried out to characterize the sensory attributes of steviol glycoside compositions having various salt fractions of sensory modifier. Sensory attributes of the solutions were tested by a panel of at least four individuals that are experienced in tasting steviol glycoside compositions. The experienced panelists used a roundtable methodology to assess each sweetness attribute. To test each solution, the experienced panelists dispensed approximately 2 mL of each solution into their own mouths by transfer pipet, dispersed the solution by moving their tongues, and recorded a value for the particular sweetness attribute being tested. Between tasting solutions, the panelists were able to cleanse their palates with water. For each sweetness attribute, the panelists agreed on a descriptive scale with relative intensities assigned for each sweetness attribute and then recorded the values for each sweetness attribute against this.
A mixture of monocaffeoylquinic acid and dicaffeoylquinic acid was obtained from yerba mate to provide the sensory modifier in acid form. Separately from the steviol glycoside component, the mixture of monocaffeoylquinic acid and dicaffeoylquinic acid was adjusted with sodium hydroxide or potassium hydroxide to obtain sodium salts or potassium salts (each corresponding to 100% salt form). The resulting samples were freeze-dried to provide sensory modifier (SM) in ready-to-use, powder-form. A series of samples were prepared from the sensory modifier. For each sample, the final concentration of sensory modifiers was 470-500 ppm (wt/wt), including the contribution of salt mass. Steviol Glycoside Component Examples A and B were used alone as a control sample and also used as the starting point for the sensory modified samples.
For each sample, the flavor profile was compared to the steviol glycoside solution alone as well as to the sample with differing salt composition.

[2] = Perceived sweetness intensity (SEV, sucrose equivalent value) of aqueous test samples; assay type: in vivo; details: sucrose equivalent value (SEV 1 = 1% sucrose solution); solution in reverse osmosis water
From the text: In some aspects, minor steviol glycosides can also have specific sensory attributes related to sweetness intensity. Perceived sweetness intensity can be reported as SEV (sucrose equivalent value) with increasing sweetness intensity corresponding to higher SEV. A SEV of 1 corresponds to a 1% sucrose solution, a SEV of 2 corresponds to a 2% sucrose solution, and so on. While perception of sweetness intensity generally increases as the concentration of the minor steviol glycoside increases, the perceived sweetness intensity can reach a plateau despite increasing amounts of the minor steviol glycoside. […]
As a further example, sweetness intensity of the solutions can be tested by a panel of at least four individuals that are experienced in tasting steviol glycoside compositions. […] The panelists also can taste the standard range of 1%, 2%, 3%, 4%, 5%, 6%, 7%, 8%, 9%, 10%, 11%, 12%, 13%, and 14% sucrose solutions ad libitum between tasting test solutions to ensure an accurate match to their recorded SEV values with the standard sucrose solutions. […]
A mixture of monocaffeoylquinic acid and dicaffeoylquinic acid was obtained from yerba mate to provide the sensory modifier in acid form. […] The resulting samples were freeze-dried to provide sensory modifier (SM) in ready-to-use, powder-form. […]

[3] = cited from earlier work

Structure (SMILES)	Mouthfeel ([1]; panel score 0-2)	Spiky-Rounded ([1]; panel score 0-3)	Tea/floral/green ([1]; panel score 0-5)	Bitter ([1]; panel score 0-6)	Sweet Linger ([1]; panel score 0-6)	Typical Reb M/N Attributes (astringency, metallic, powdery, numbing, vapory) ([1]; panel score 0-6)	SEV [2]	pKa [3]
C=C1C[C@@]23CC[C@H]4[C@@](C)(CCC[C@@]4(C)C(=O)O[C@@H]4O[C@H](CO)[C@@H](O)[C@H](O[C@@H]5O[C@H](CO)[C@@H](O)[C@H](O)[C@H]5O)[C@H]4O[C@@H]4O[C@H](CO)[C@@H](O)[C@H](O)[C@H]4O)[C@@H]2CC[C@]1(O[C@@H]1O[C@H](CO)[C@@H](O)[C@H](O[C@@H]2O[C@H](CO)[C@@H](O)[C@H](O)[C@H]2O)[C@H]1O[C@@H]1O[C@H](CO)[C@@H](O)[C@H](O)[C@H]1O)C3 [Component Example A, rebaudioside M]	0	0	0	5	4	4	9.5	–
O=C(O)[C@]1(O)C[C@@H](O)[C@@H](O)[C@H](O)C1 [quinic acid, D-(−)-quinic acid]	–	–	–	–	–	–	–	around 3.46
